# Measurements: US6358700B2, “Method for detecting microorganisms by fluorescent staining using hydrostatic pressure” (Japan Marine Science and Technology Center, priority 1998, dated 2002)
# Columns and labels:
# [1] = test system: IFO2347 strain; experiment: Dependency on glucose metabolism of pressure-induced CDCF accumulation; type: cell-based; conditions: Saccharomyces cerevisiae, MBA buffer with 100 mM D-glucose, 10 μM CDCFDA, FIG. 4B, read-out: concentration at which half-maximal inhibition of pressure-induced CDCF accumulation occurred
# Experimental: Cells originated fiom a log-phase culture (2×10^7 to 4×10^7 cells/ml) were incubated with 10 μM CFDA (Sigma, Cat. No. C-5041) in YPD containing 50 mM citric acid (pH 3.0), or 10 μM CDCFDA Molecular Probe, Cat. No. C-369) in YPD containing 50 mM citric acid (pH 5.0), respectively, under varying hydrostatic pressures ranging from ordinary pressure to 60 MPa. To analyze the dependence, on glucose, of pressure-induced dye-accumulation, vegetative cells were collected, washed twice in distilled water and starved for 30 min on ice. […]
# To analyze the effect of 2-deoxyglucose, cells were incubated with CDCFDA in MBA buffer containing 100 mM D-glucose. […] Fluorescence of the labeled cells emitted at 535 nm with excitation at 485 nm was detected using CytoFluor 2350 Plate Reader (available from Mlipore), or an RF5300PC spectrofluorometer (available from Shimazu, Japan). Fluorescence intensity (a. u.; arbitrary units) was recorded as the fluorescence of labeled cells minus the fluorescence of non-labeled cells for 10^7 cells.
# The cells of the strain were cultured at 24° C. for one hour in MBA buffer containing a desired amount of D-glucose at a predetermined hydrostatic pressure (0.1 MPa (◯), 30 MPa (●)) in the presence of 10 μM CDCFDA. The labeled cells were analyzed using CytoFluor 2350. […]
# [2] = test system: IFO2347 strain; experiment: Accumulation of CF and CDCF under elevated hydrostatic pressure (CytoFluor 2350); type: cell-based, Saccharomyces cerevisiae; conditions: 10 μM CFDA or CDCFDA, one hour, FIG. 1A
# Experimental: (§1) Cells of Saccharomyces cerevisiae were grown in YPD (1% yeast extract, 2% bactopeptone, 2% D-glucose) broth at 24° C. Cells from a log-phase culture (2×10^7 to 4×10^7 cells/ml) were collected by centiifugation and re-suspended in fresh YPD containing 50 mM citric acid (pH 3.0 or pH 5.0), then placed in plastic tubes (Cryotubes, available from Nunc) at 2×10^7 to 3×10^7 cells/ml. After sealing with Parafilm, the tubes were put into titanium pressure vessels, followed by application of a desired hydrostatic pressure. The each required hydrostatic pressure was established within 2 min using a hand pump (available from Rigo-sha, Japan). To remove samples, the pressure was released in approximately 15 sec.
# (§2) Cells originated fiom a log-phase culture (2×10^7 to 4×10^7 cells/ml) were incubated with 10 μM CFDA (Sigma, Cat. No. C-5041) in YPD containing 50 mM citric acid (pH 3.0), or 10 μM CDCFDA Molecular Probe, Cat. No. C-369) in YPD containing 50 mM citric acid (pH 5.0), respectively, under varying hydrostatic pressures ranging from ordinary pressure to 60 MPa. To analyze the dependence, on glucose, of pressure-induced dye-accumulation, vegetative cells were collected, washed twice in distilled water and starved for 30 min on ice. Then cells were suspended in MBA buffer (100 mM MES-Bis-Tris, 100 mM ammonium sulfate, pH 5.0), followed by addition of CDCFDA and application of a desired hydrostatic pressure of up to 6OMPa for one hour in the presence of D-glucose in various concentrations.
# (§3) To analyze the effect of 2-deoxyglucose, cells were incubated with CDCFDA in MBA buffer containing 100 mM D-glucose. Unless otherwise specified, the final concentration of the fluorescent dye was 10 μM. After applying a desired hydrostatic pressure for one hour, the cells were washed twice with 10 mM MES-Bis-Tris (pH 5.0) and suspended in MB buffer. Fluorescence of the labeled cells emitted at 535 nm with excitation at 485 nm was detected using CytoFluor 2350 Plate Reader (available from Mlipore), or an RF5300PC spectrofluorometer (available from Shimazu, Japan). Fluorescence intensity (a. u.; arbitrary units) was recorded as the fluorescence of labeled cells minus the fluorescence of non-labeled cells for 10^7 cells.
# (§4) Cells of the IFO2347 strain were incubated with 10 μM of CFDA or CDCFDA and cultured for one hour under each hydrostatic pressure condition. The stained cells were analyzed using Cytofluor 2350. The results thus obtained are plotted on FIG. 1A Similarly, cells of IFO10159 strain were inoculated with 10 μM of CFDA or CDCFDA and cultured for one hour under each hydrostatic pressure condition. The stained cells were analyzed using Cytofluor 2350. The results thus obtained are plotted on FIG. 1B. In FIGS. 1A and 1B, ◯ and ● represent cells stained with CF and those stained with CDCF, respectively.
# [3] = test system: IFO10159 strain; experiment: as above; type: cell-based, Saccharomyces cerevisiae; conditions: ordinary pressure; for total fluorescence intensity of labeled cells: 10 μM dye, one hour
# Experimental: as §1, §2, §3, §4
# [4] = test system: IFO2347 strain; experiment: Flow cytometry of CDCFDA-labeled cells; type: cell-based, Saccharomyces cerevisiae; conditions: for mean fluorescence of labeled cells / peak fluorescence of labeled cells: 10 μM CDCFDA, 24° C., one hour
# Experimental: Cells were incubated with 10 μM CFDA or 10 μM CDCFDA and cultivated under several hydrostatic pressures for one hour. After decompression, the labeled (or stained) cells were washed twice with distilled water and re-suspended in MB buffer. The cells were analyzed using the Bryte-HS Flow Cytometry System (available from Bio-Rad) under ordinary pressure.
# The IFO2347 strain was cultured at 24° C. for one hour in the presence of 10 μM CDCFDA, under a hydrostatic pressure of 0.1, 30 or 60 MPa. The CDCFDA-labeled cells (about 100,000) were analyzed using the Bryte-HS Flow Cytometry System. FIG.2A depicts the histograms showing the intensity distribution of populations of IFO2347 cells labeled with CDCFDA observed after the cultivation.
# [5] = test system: IFO2347 strain; experiment: Effects of hydrostatic pressure on hydrolysis of CDCFDA; type: cell-based, Saccharomyces cerevisiae; conditions: for fluorescence intensity reached (hydrolysis under pressure): 50 μM CDCFDA, FIG. 3A
# Description: Fluorescence emission was examined under several hydrostatic pressures in a hydrostatic chamber provided with transparent windows which were made by sapphire (size: 10×8 mm). Each sample in a transparent cuvette was placed in the chamber which was set up in an RF5300PC spectrofluorometer. Fluorescence was emitted at 535 nm with excitation at 485 nm. The fluorescence intensity of the labeled cells was strong enough to be detected through the sapphire windows, even though the emission was reduced compared to the analysis without such a hydrostatic chamber equipped with a sapphire window. Each hydrostatic pressure was applied using a hand pump (available from Teramecs, Co. Ltd., Japan).
# A cuvette containing the IFO2347 strain was fitted to a container, followed by addition of 50 μM CDCFDA, application of a hydrostatic pressure at a point P (see FIG. 3A), and examination of the fluorescence intensity change with time in a hydrostatic chamber equipped with RF5300 Fluorescent Spectrometer. The results obtained are plotted on FIG. 3A The fluorescence intensity increased to 300 a.u. and 130 a.u. when hydrostatic pressures of 0.1 MPa (ordinary pressure) and 60 MPa were applied, respectively (FIG. 3A). On the other hand, the fluorescence intensity increased to 770 a.u. when a pressure of 30 MPa was applied.
# Cells of the IFD2347 strain were pre-incubated at several hydrostatic pressures for one hour in YPD culture medium (pH 5.0), and subsequently the pre-incubated cells were placed into a cuvette, followed by addition of 50 μM of CDCFDA to the pressure-adapted cells at ordinary pressure and examination of any change in the fluorescence intensity (the hydrolysis activity) by the same method as used above. The results thus obtained are plotted on FIG. 3B. […] Almost identical results were obtained when using CFDA (data not shown).
molecule,measurement,setting,value
O=CC[C@@H](O)[C@H](O)[C@H](O)CO [2-deoxyglucose],IC50,[1],~12 mM
Carboxyfluorescein [CF],hydrostatic pressure at which accumulation peaks,[2],40 MPa
same,fluorescence intensity relative to non-labeled cells,[3],1.6 fold
same,total fluorescence intensity of labeled cells,[3],15.5 a. u. per 10^7 cells
Carboxydichlorofluorescein [CDCF],mean fluorescence of labeled cells,[4]; 0.1 MPa (ordinary pressure),26 a.u.
same,peak fluorescence of labeled cells,[4]; 0.1 MPa (ordinary pressure),23 a.u.
same,increase of accumulation of CDCF,[4]; 30 MPa for one hour versus ordinary pressure,four to six folds
same,mean fluorescence of labeled cells,[4]; 30 MPa,162 a.u.
same,peak fluorescence of labeled cells,[4]; 30 MPa,92 a.u.
same,enhancement of staining,[4]; 60 MPa,not enhanced
same,hydrostatic pressure at which accumulation peaks,[2],30 MPa
same,fluorescence intensity relative to non-labeled cells,[3],about 2.5 fold
same,total fluorescence intensity of labeled cells,[3],24.8 a. u. per 10^7 cells
Carboxydichlorofluorescein diacetate [CDCFDA],fluorescence intensity reached (hydrolysis under pressure),[5]; 0.1 MPa (ordinary pressure),300 a.u.
same,fluorescence intensity reached (hydrolysis under pressure),[5]; 30 MPa,770 a.u.
same,fluorescence intensity reached (hydrolysis under pressure),[5]; 60 MPa,130 a.u.
same,rate of hydrolysis by cells adapted to 30 MPa relative to cells adapted to 0.1 MPa or 60 MPa,"[5]; pre-incubation one hour, 50 μM CDCFDA added at ordinary pressure, FIG. 3B",approximately three times greater
